Experimental data: patent publication US9187428B2, “Substituted dicyanopyridines and use thereof” (Bayer Intellectual Property GmbH, priority 2010, dated 2015)
≈ marks a conversion by molar mass, not a printed value. Where a name gives a salt, the structure may show the parent alone. Read-outs that look alike come from different tables or passages of the source.

Experiments:
[1] = target: A1 receptor (Rattus norvegicus (Rat), UniProt P25099); experiment: A1 receptor GTP shift binding assay with rat brain membranes and [3H]DPCPX; settings: rat brain membranes, 0.4 nM [3H]DPCPX, presence and absence of 1 mM GTP
Chain of A1 receptor (P25099 whole entry): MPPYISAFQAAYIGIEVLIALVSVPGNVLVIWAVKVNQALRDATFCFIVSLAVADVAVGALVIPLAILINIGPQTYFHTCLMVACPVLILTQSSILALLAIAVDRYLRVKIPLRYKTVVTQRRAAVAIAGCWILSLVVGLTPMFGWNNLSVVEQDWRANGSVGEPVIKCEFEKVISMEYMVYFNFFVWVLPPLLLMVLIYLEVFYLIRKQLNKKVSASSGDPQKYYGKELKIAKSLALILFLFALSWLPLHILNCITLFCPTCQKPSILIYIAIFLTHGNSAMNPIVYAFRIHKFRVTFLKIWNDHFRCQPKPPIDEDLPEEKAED
Description: B-6. GTP Shift Experiment
Preparation of the Brain Membrane
The brains of male Wistar rats are removed and immediately transferred into an ice-cooled 0.32 mol/l sucrose solution. The tissue is comminuted using a glass-Teflon homogenizer and then centrifuged (1000×g for 10 minutes). The supernatant is then ultracentrifuged at 30 000 g for 30 minutes. The pellet obtained in this manner is resuspended in 10 ml of water and allowed to stand on ice for 30 minutes. After a final centrifugation step at 48 000 g for 10 min, the membranes are resuspended in 50 mmol/l Tris-HCl buffer, pH 7.4, and incubated with 2 U/ml of adenosine deaminase at 37° C. for 30 min. This is followed by a protein determination according to Bradford. The membranes are frozen in small aliquots and stored at −80° C. until required for the binding assay.
The A1 receptor GTP shift binding assay is carried out using rat brain membranes and 0.4 nM [^3H] […] 10 μg of membrane protein are incubated at 37° C. for 20 min with 0.4 nM [^3H]DPCPX and adenosine A1 agonists in various concentrations in buffer (50 mM tris-HCl, pH 7.4, 2 U/ml ADA) in the presence and absence of 1 mM guanosine triphosphate (GTP). […] The radioactivity on the filter is measured with addition of 100 μl of scintillation cocktail in a Microbeta TriLux beta counter (PerkinElmer, Massachusetts, USA). […]

[2] = Determination of the solubility; format: physicochemical; settings: kinetic from dmso stock
Description: B-8. Determination of the Solubility
• PBS buffer pH 6.5: 90.00 g of NaCl p.a. (for example from Merck, Art. No. 1.06404.1000), 13.61 g of KH2PO4 p.a. (for example from Merck, Art. No. 1.04873.1000) and 83.35 g of 1 N aqueous sodium hydroxide solution (for example from Bernd Kraft GmbH, Art. No. 01030.4000) are weighed into a 1 liter measuring flask, the flask is filled with distilled water to 1 liter and the mixture is stirred for 1 hour. Using 1 N hydrochloric acid (for example from Merck, Art. No. 1.09057.1000) the pH is then adjusted to 6.5. • PEG/water solution (30:70 v/v): 30 ml of polyethylene glycol 400 (for example from Merck, Art. No. 8.17003.1000) and 70 ml of distilled water are homogenized in a 100 ml measuring flask. • PEG/PBS buffer pH 6.5 (80:20 v/v): 80 ml of polyethylene glycol 400 (for example from Merck, Art. No. 8.17003.1000) and 20 ml of PBS buffer pH 6.5 are homogenized in a 100 ml measuring flask. • Dimethyl sulfoxide (for example from Baker, Art. No. 7157.2500) • Distilled water. Preparation of the Starting Solution (Original Solution):
At least 4 mg of the test substance are weighed accurately into a wide-necked 10 mm screw V vial (from Glastechnik Gräfenroda GmbH, Art. No. 8004-WM-H/V15μ) with fitting screw cap and septum, in a pipetting robot DMSO is added to a concentration of 50 mg/ml and the mixture is shaken for 10 minutes.
Preparation of the Calibration Solutions:
Preparation of the Starting Solution for Calibration Solutions (Stock Solution):
With the aid of a pipetting robot, 10 μl of the original solution are transferred into a microtiter plate and made up with DMSO to a concentration of 600 μg/ml. The sample is shaken until everything has gone into solution.
Calibration Solution 1 (20 μg/ml):
1000 μl of DMSO are added to 34.4 μl of the stock solution, and the mixture is homogenized.
Calibration Solution 2 (2.5 μg/ml):
700 μl of DMSO are added to 100 μl of calibration solution 1, and the mixture is homogenized.
Preparation of the Sample Solutions:
Sample Solution for Solubilities of Up to 5 g/liter in PBS Buffer pH 6.5:
10 μl of the original solution are transferred into a microtiter plate, and 1000 μl of PBS buffer pH 6.5 are added.
Sample Solution for Solubilities of Up to 5 g/liter in PEG/Water (30:70):
10 μl of the original solution are transferred into a microtiter plate, and 1000 μl of PEG/water (30:70) are added.
Sample Solution for Solubilities of Up to 5 g/liter in PEG/PBS Buffer pH 6.5 (80:20):
10 μl of the original solution are transferred into a microtiter plate, and 1000 μl of PEG/PBS buffer pH 6.5 (80:20) are added.
The sample solutions prepared in this manner are shaken at 1400 rpm in a temperature-adjustable shaker (for example Eppendorf Thermomixer comfort Art. No. 5355 000.011 with interchangeable block Art. No. 5362.000.019) at 20° C. for 24 hours. In each case 180 μl are taken from these solutions and transferred into Beckman Polyallomer Centrifuge Tubes (Art. No. 343621). These solutions are centrifuged at about 223 000×g for one hour (for example Beckman Optima L-90K Ultracentrifuge with Type 42.2 Ti Rotor at 42 000 rpm). From each of the sample solutions, 100 μl of the supernatant are removed and diluted 1:5 and 1:100 with DMSO. From each dilution, a sample is transferred into a vessel suitable for HPLC analysis.
The samples are analyzed by RP-HPLC. Quantification is carried out using a two-point calibration curve of the test compound in DMSO. The solubility is expressed in mg/liter. Analysis sequence: 1) calibration solution […]; 2) calibration solution […]; 3) sample solution 1:5; 4) sample solution 1:100. […]

[3] = target: adenosine A2b receptor (Homo sapiens (Human), UniProt P29275); experiment: Indirect determination of adenosine agonism by gene expression (luciferase reporter), A2b cells; format: cell-based; settings: CHO cells stably transfected with adenosine A2b receptor, 50% of maximum stimulation
Chain of adenosine A2b receptor (P29275 whole entry): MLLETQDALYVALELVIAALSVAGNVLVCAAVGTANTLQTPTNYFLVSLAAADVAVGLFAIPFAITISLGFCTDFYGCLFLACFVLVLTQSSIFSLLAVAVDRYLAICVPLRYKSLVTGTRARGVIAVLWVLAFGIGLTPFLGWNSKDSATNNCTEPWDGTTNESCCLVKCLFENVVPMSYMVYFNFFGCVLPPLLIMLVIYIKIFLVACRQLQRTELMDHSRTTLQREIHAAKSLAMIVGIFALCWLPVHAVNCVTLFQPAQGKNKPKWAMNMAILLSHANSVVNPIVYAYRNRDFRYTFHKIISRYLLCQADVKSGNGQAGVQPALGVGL
Source text: (§1) B-1. Indirect Determination of the Adenosine Agonism by Way of Gene Expression
(§2) Cells of the CHO (Chinese Hamster Ovary) permanent line are transfected stably with the cDNA for the adenosine receptor subtypes A1, A2a and A2b. The adenosine A1 receptors are coupled to the adenylate cyclase by way of Gi proteins, while the adenosine A2a and A2b receptors are coupled by way of Gs proteins. In correspondence with this, the formation of cAMP in the cell is inhibited or stimulated, respectively. After that, expression of the luciferase is modulated by way of a cAMP-dependent promoter. The luciferase test is optimized, with the aim of high sensitivity and reproducibility, low variance and good suitability for implementation on a robot system, by varying several test parameters, such as cell density, duration of the growth phase and the test incubation, forskolin concentration and medium composition. The following test protocol is used for pharmacologically characterizing cells and for the robot-assisted substance screening:
(§3) The stock cultures are grown, at 37° C. and under 5% CO2, in DMEM/F12 medium containing 10% FCS (fetal calf serum) and in each case split 1:10 after 2-3 days. Test cultures are seeded in 384-well plates with 2000 cells per well and grown at 37° C. for approx. 48 hours. The medium is then replaced with a physiological sodium chloride solution (130 mM sodium chloride, 5 mM potassium chloride, 2 mM calcium chloride, 20 mM HEPES, 1 mM magnesium chloride hexahydrate, 5 mM sodium bicarbonate, pH 7.4). The substances to be tested, which are dissolved in DMSO, are pipetted into the test cultures (maximum final concentration of DMSO in the test mixture: 0.5%) in a dilution series of from 5×10^−11 M to 3×10^−6 M (final concentration). 10 minutes later, forskolin is added to the A1 cells and all the cultures are subsequently incubated at 37° C. for four hours. After that, 35 μl of a solution which is composed of 50% lysis reagent (30 mM disodium hydrogenphosphate, 10% glycerol, 3% TritonX100, 25 mM TrisHCl, 2 mM dithiotreitol (DTT), pH 7.8) and 50% luciferase substrate solution (2.5 mM ATP, 0.5 mM luciferin, 0.1 mM coenzyme A, 10 mM tricine, 1.35 mM magnesium sulfate, 15 mM DTT, pH 7.8) are added to the test cultures, which are shaken for approx. 1 minute and the luciferase activity is measured using a camera system. The EC50 values are determined, i.e., the concentrations at which 50% of the luciferase response is inhibited in the case of the A1 cell, and, respectively, 50% of the maximum stimulation with the corresponding substance is achieved in the case of the A2b and A2a cells. […] Pharmacol., 357, 1-9 (1998)].
(§4) Table A below lists the EC50 values of representative working examples for the receptor stimulation on adenosine A1, A2a and A2b receptor subtypes: […]

[4] = target: adenosine A1 receptor (Homo sapiens (Human), UniProt P30542); experiment: Indirect determination of adenosine agonism by gene expression (luciferase reporter), A1 cells; format: cell-based; settings: CHO cells stably transfected with adenosine A1 receptor; 1 μM forskolin; 50% inhibition of luciferase response
Chain of adenosine A1 receptor (P30542 whole entry): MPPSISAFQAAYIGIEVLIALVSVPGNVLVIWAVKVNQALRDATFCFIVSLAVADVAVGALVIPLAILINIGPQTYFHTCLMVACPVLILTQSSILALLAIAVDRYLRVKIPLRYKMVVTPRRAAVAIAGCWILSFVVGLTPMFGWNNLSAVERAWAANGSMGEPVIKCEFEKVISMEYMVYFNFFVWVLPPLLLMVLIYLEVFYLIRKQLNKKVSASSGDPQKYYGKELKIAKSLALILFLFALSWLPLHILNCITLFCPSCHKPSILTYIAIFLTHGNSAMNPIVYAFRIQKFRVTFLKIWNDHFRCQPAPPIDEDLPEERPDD
Source text: as §1, §2, §3, §4

[5] = target: adenosine A2a receptor (Homo sapiens (Human), UniProt P29274); experiment: Indirect determination of adenosine agonism by gene expression (luciferase reporter), A2a cells; format: cell-based; settings: CHO cells stably transfected with adenosine A2a receptor, 50% of maximum stimulation
Chain of adenosine A2a receptor (P29274 whole entry): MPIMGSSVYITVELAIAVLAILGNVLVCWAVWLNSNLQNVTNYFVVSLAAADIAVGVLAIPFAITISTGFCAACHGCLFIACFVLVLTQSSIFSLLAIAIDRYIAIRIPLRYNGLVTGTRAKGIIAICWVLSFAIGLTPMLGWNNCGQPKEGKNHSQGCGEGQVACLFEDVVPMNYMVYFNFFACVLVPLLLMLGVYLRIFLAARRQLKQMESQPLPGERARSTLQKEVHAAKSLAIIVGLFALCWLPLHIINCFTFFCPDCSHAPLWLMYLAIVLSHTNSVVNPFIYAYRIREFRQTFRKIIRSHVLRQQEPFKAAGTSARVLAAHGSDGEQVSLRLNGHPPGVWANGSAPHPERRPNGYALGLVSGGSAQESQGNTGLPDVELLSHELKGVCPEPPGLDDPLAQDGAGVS
Source text: as §1, §2, §3, §4

[6] = PEG 400/water solution (30:70 v/v), aqueous with cosolvent or surfactant or cyclodextrin, PEG 400/water (30:70 v/v), 20° C., read-out: Solubility [mg/liter] PEG/water solution (30:70 v/v)
[7] = aqueous buffer, PBS buffer pH 6.5, 20° C., read-out: Solubility [mg/liter] PBS buffer

| SMILES | GTP Shift [1] | solubility at 24 h [2, 6] | EC50 [3] | EC50 [4] | EC50 [5] | solubility at 24 h [2, 7] |
| --- | --- | --- | --- | --- | --- | --- |
| CC(Sc1nc(N)c(C#N)c(-c2ccc(OCCO)cc2)c1C#N)c1cccc(C(N)=O)c1 (single isomer, unassigned) [Example 61, 3-[1-({6-Amino-3,5-dicyano-4-[4-(2-hydroxyethoxy)phenyl]pyridin-2-yl}sulfanyl)ethyl]benzenecarboxamide] | 1.5 | 90 mg/L (≈ 196 µM) |  |  |  |  |
| COCCOc1ccc(-c2c(C#N)c(N)nc(SC(C)c3cccc(C(N)=O)c3)c2C#N)cc1 (single isomer, unassigned) [Example 64, 3-[1-({6-Amino-3,5-dicyano-4-[4-(2-methoxyethoxy)phenyl]pyridin-2-yl}sulfanyl)ethyl]benzenecarboxamide] | 2.8 | 260 mg/L (≈ 549 µM) |  |  |  |  |
| N#Cc1c(N)nc(SCc2ccnc(C(=O)NC3CC3)c2)c(C#N)c1-c1ccccc1 [Example 13] |  | 210 mg/L (≈ 492 µM) | 46 nM | 0.08 nM | 108 nM |  |
| N#Cc1c(N)nc(SCc2cccc(C(N)=O)c2)c(C#N)c1-c1ccccc1 [Example 33] |  | 53 mg/L (≈ 138 µM) | 3.9 nM | 0.3 nM | 117 nM | 5 mg/L (≈ 13 µM) |
| CNC(=O)c1cc(CSc2nc(N3CC(O)C3)c(C#N)c(-c3ccccc3)c2C#N)ccn1 [Example 70, 4-({[3,5-Dicyano-6-(3-hydroxyazetidin-1-yl)-4-phenylpyridin-2-yl]sulfanyl}methyl)-N-methylpyridine-2-carboxamide] |  |  | 1450 nM | 0.2 nM | 272 nM |  |
| CNC(=O)c1cc(CSc2nc(N(C)CCO)c(C#N)c(-c3ccccc3)c2C#N)ccn1 [Example 75, 4-[({3,5-Dicyano-6-[(2-hydroxyethyl)(methyl)amino]-4-phenylpyridin-2-yl}sulfanyl)methyl]-N-methylpyridine-2-carboxamide] |  |  | 175 nM | 0.2 nM | 1010 nM |  |
| CNC(=O)c1cc(CSc2nc(NCCO)c(C#N)c(-c3ccc(OCCO)nc3)c2C#N)ccn1 [Example 78] |  |  | 393 nM | 0.1 nM | 355 nM |  |
| CNC(=O)c1cc(CSc2nc(NC[C@H](O)CO)c(C#N)c(-c3ccccc3)c2C#N)ccn1 [Example 83] |  |  | 593 nM | 0.2 nM | 2180 nM |  |
| CCNC(=O)c1cccc(CSc2nc(N3CCCC3)c(C#N)c(-c3ccc(OCCO)cc3)c2C#N)c1 [Example 98, 3-[({3,5-Dicyano-4-[4-(2-hydroxyethoxy)phenyl]-6-pyrrolidin-1-ylpyridin-2-yl}sulfanyl)methyl]-N-ethylbenzenecarboxamide] |  |  | 600 nM | 0.3 nM | 1540 nM |  |
| N#Cc1c(NC[C@@H](O)CO)nc(SCc2cccc(C(N)=O)c2)c(C#N)c1-c1ccccc1 [Example 99, 3-{[(3,5-Dicyano-6-{[(2R)-2,3-dihydroxypropyl]amino}-4-phenylpyridin-2-yl)sulfanyl]methyl}-benzenecarboxamide] |  | 440 mg/L (≈ 957 µM) |  | 0.9 nM |  | 9 mg/L (≈ 19.6 µM) |
| N#Cc1c(N)nc(SCc2cccc(C(=O)NCCN)c2)c(C#N)c1-c1ccccc1 [Example 101, 3-{[(6-Amino-3,5-dicyano-4-phenylpyridin-2-yl)sulfanyl]methyl}-N-(2-aminoethyl)benzenecarboxamide hydrochloride] |  |  | 163 nM | 0.2 nM | 440 nM |  |
